Laboratory results from patent US10100011B2, “Pentadienoyl piperidine derivative and use thereof” (Industry-Academic Cooperation Foundation, Yonsei University, priority 2014, dated 2018).

How the values were obtained:
[1] = system: C57BL/6J mice; assay: Oral glucose tolerance test, fasting blood glucose and insulin in mice fed high-fat diet; type: in vivo, mouse
Procedure: An obesity induction diet used in this experiment was a high-fat diet (HFD: 40% fat calories, 17 g of lard+3% corn oil/100 g diet), and the compositions of diets including the LJ-2501, LJ-2488, LJ-2495, LJ-2496 compounds were identical to that of HFD, except that each of the compounds was included in an amount of about 0.05% (Table 2). As a control drug, an anti-obesity drug, sibutramine (Sibut), was added in an amount of about 0.01% to the high-fat diet and a normal diet group (Chow) was fed with commercial rodent chow.
5-week old 40 male C57BL/6J mice (Orient Bio., Korea) were fed with hard feed and accommodated in a laboratory environment for one week. Subsequently, in accordance with a randomized block method, the mice were randomly grouped into a normal diet group, a high-fat diet control group, two experimental substance groups, and […] and raised for a total of 10 weeks (n=8/group). Diets were supplied with water between 10 am and 11 am every day. An intake amount was measured every day and the body weights of the mice were measured every week. To prevent temporal weight change due to feed intake, feedboxes were removed and, after two hours, the body weights were measured. The experimental animals were fasted for 12 hours or more and then anesthetized with diethyl ether, followed by collecting blood, liver, and visceral adipose tissues (epididymal fat, perirenal fat, mesenteric fat, and retroperitoneal fat). The collected samples were washed with 0.1 M phosphate buffered saline (pH 7.4) and then weighed. Blood samples collected from abdominal aortas were centrifuged at 1000×g for 15 minutes, thereby separating plasma.
The experimental animals were fasted for 18 hours after being raised eight weeks for experiment and orally administered d-glucose in an amount of 2 g/kg body weight. At 15 minutes, 30 minutes, 60 minutes, 120 minutes after the d-glucose administration, blood was collected from the tail veins of the mice. A glucose concentration in the collected blood was measured by means of a strip-operated blood glucose sensor (ONETOUCH Ultra, Inverness Medical Ltd. Stockport, UK).
A glucose concentration in plasma during fasting was measured by means of an automatic biochemical analyzer (Express Plus, Chiron Diagnostics Co., USA) and a kit reagent for analysis was purchased from Bayer (Tarrytown, N.Y., USA). An insulin concentration in plasma was measured using the Rat Insulin RIA kit (LINCO Research, Inc, St. Charles, USA).

[2] = system: genes related to lipogenesis and AMPK in liver tissue; assay: Gene (RT-PCR) and protein (Western blotting) expression in liver tissue of mice; type: in vivo, mouse; conditions: compound in high-fat diet, pattern similar to Chow group
Procedure: 1 ml of a TRIzol solution per 0.1 g of epididymal fat tissue was added to the pulverized tissue, followed by centrifuging at 4° C. and 12,000×g for 10 minutes. A supernatant was transferred into a new tube and then 200 μl of chloroform was added thereto, followed by vortexing. This process was repeated twice and then a supernatant was transferred into a new tube. Subsequently, isopropanol and the supernatant were mixed in a ratio of 1:1 and strongly shook ten times, followed by standing at room temperature for 10 minutes. Subsequently, centrifugation was carried out at 12,000×g and 4° C. for 10 minutes, followed by removing a supernatant and adding 1 ml of 70% ethanol to the remaining precipitate. Subsequently, centrifugation was carried out at 7,500×g and 4° C. for five minutes. Ethanol was removed and then the tube containing an RNA precipitate was dried at room temperature for five minutes. […] The concentrations of the extracted RNA samples were measured at wavelengths of 260 nm and 280 nm by means of a UV/VIS spectrophotometer (Beckman Coulter, DU730). […]
A predetermined amount of visceral fat or liver tissue was homogenized with liquid nitrogen and a lysis buffer in a mortar and then centrifuged at 13,000 rpm and 4° C. for 20 minutes. Subsequently, a middle layer was collected and subjected to protein quantification according to the Bradford method. […]

[3] = system: 3T3L1 cells; assay: Adipocyte differentiation inhibition in preadipocytes (Oil-red O staining); type: cell-based, mouse; conditions: Mus musculus, 3T3-L1, treated every two days during 14 days differentiation, Oil-red O O.D. 600 nm, read-out: adipocyte differentiation inhibition activity, EC50 value
Procedure: Preadipocytes, 3T3L1 cells, were aliquoted into a 12-well plate and cultured in a DMEM medium containing 1% penicillin-streptomycin, 1% nonessential amino acid, and 10% fetal bovine serum (FBS) in a 5% CO2 incubator at 37° C. until confluence. The 3T3L1 cells grown to confluence were cultured for two days in a medium containing 0.5 mM isobutyl-methylxanthine, 1 μM dexamethasone (MDI), and 1 μg/ml insulin, thereby being differentiated into adipocytes. Subsequently, the differentiated adipocytes were further cultured for two days in a DMEM medium including 1 μg/ml insulin, thereby being differentiated into mature adipocytes. Subsequently, the differentiated mature adipocytes were further cultured for 10 days while replacing a used DMEM medium with a new DMEM medium every two days. As a result, completely differentiated adipocytes were formed.
3T3-L1 cells were treated with each of a total of four novel compound types at different concentrations every two days from the first day of cell differentiation induction by addition of DMI. Each of the derivative compounds was dissolved in DMSO and then used. A negative control group including only DMSO was included in this experiment. Cell culture was carried out for 14 days. When differentiation was completed, a medium was removed and lipid droplets contained in differentiated adipocytes were stained. To stain the lipid droplets, cells were washed with phosphate buffered saline (PBS) twice and then fixed with 10% buffered neutral formalin for one hour, followed by washing with PBS once. Subsequently, 1 ml of Oil-red-O dye for staining lipid droplets red was fed into a 12-well plate and lipid droplets were stained for one hour, followed by washing with distilled water twice. To measure the concentration of neutral fat contained in the differentiated 3T3L1 cells, the stained lipid droplets were dissolved in 1 ml of isobutanol, followed by measuring an O.D value at 600 nm.

[4] = system: genes related to adipose tissue generation and thermogenesis in visceral fat tissue; assay: Gene (RT-PCR) and protein (Western blotting) expression in visceral (epididymal) fat tissue of mice; type: in vivo, mouse; conditions: compound in high-fat diet
Procedure: 1 ml of a TRIzol solution per 0.1 g of epididymal fat tissue was added to the pulverized tissue, followed by centrifuging at 4° C. and 12,000×g for 10 minutes. A supernatant was transferred into a new tube and then 200 μl of chloroform was added thereto, followed by vortexing. This process was repeated twice and then a supernatant was transferred into a new tube. Subsequently, isopropanol and the supernatant were mixed in a ratio of 1:1 and strongly shook ten times, followed by standing at room temperature for 10 minutes. Subsequently, centrifugation was carried out at 12,000×g and 4° C. for 10 minutes, followed by removing a supernatant and adding 1 ml of 70% ethanol to the remaining precipitate. Subsequently, centrifugation was carried out at 7,500×g and 4° C. for five minutes. Ethanol was removed and then the tube containing an RNA precipitate was dried at room temperature for five minutes. The dried RNA pellet was dissolved in nuclease free water. The concentrations of the extracted RNA samples were measured at wavelengths of 260 nm and 280 nm by means of a UV/VIS spectrophotometer (Beckman Coulter, DU730). In addition, the extracted RNA samples were electrophoresed on an agarose gel to confirm the quality of the RNA samples.
The RNA samples extracted from epididymal fat tissue were subjected to reverse transcription using oligo dT primers and the Superscript reverse transcription enzyme (GIBCO BRL, Gaithersburg, Md., USA), thereby synthesizing cDNAs. Each of the synthesized cDNAs was used as a template and 5′ and 3′ flanking sequences of cDNA of each of genes to be amplified were used as primers, thereby performing PCR. 1 μl of each of amplified PCR products was electrophoresed on a 1% agarose gel and a DNA band was observed.
A predetermined amount of visceral fat or liver tissue was homogenized with liquid nitrogen and a lysis buffer in a mortar and then centrifuged at 13,000 rpm and 4° C. for 20 minutes. Subsequently, a middle layer was collected and subjected to protein quantification according to the Bradford method. 50 μg of a protein was electrophoresed on an SDS polyacryamide gel and then electro-blotted on hyperfilm PVDF. A reaction was carried out using a corresponding antibody and detection was performed using ECL.

[5] = RT-PCR, levels similar to Chow group

## CSc1ccc(/C=C/C=C/C(=O)N2CCCCC2)cc1 [LJ-2501, (2E,4E)-5-(4-(methylthio)phenyl)-1-(piperine-1-yl)penta-2,4-diene-1-one]
[1]; 2 g/kg glucose orally, 15, 30, 60 and 120 minutes
  blood glucose concentrations after oral glucose compared to HFD (in words): reduced in all time slots
[1]; calculated from fasting glucose and insulin, 10 weeks
  insulin resistance index (HOMA-IR), reduction compared to HFD: 61%
[1]; compound in high-fat diet for 10 weeks
  blood glucose concentration during fasting, reduction compared to HFD: 20%
[1]; compound in high-fat diet for 10 weeks, fasting
  blood insulin concentration, reduction compared to HFD: 59%
[1]; oral glucose tolerance test, 2 g/kg glucose
  area under the curve (AUC) of blood glucose concentration, reduction compared to HFD: 35%
[2]; RT-PCR
  HFD-caused increase of expression of downstream genes of AMPK (LXRα, SREBP-1c, LPL, FAS, ACC) in liver tissue: reversed
[2]; Western blotting
  HFD-caused reduction of AMPK phosphorylation in liver tissue: reversed
[3]
  EC50: 101 µM
[4]; RT-PCR
  expression levels of NRF-1, COX2 and TFAM in visceral fat tissue: increasing
[4]; [5]
  gene expression levels of PGC-1α, SIRT1 and UCP1 in visceral adipose tissue compared to HFD: increased
  mRNA expression of C/EBPα, PPARγ2 and target genes (CD36, FAS, leptin) in epididymal fat tissue compared to HFD: reduced
[4]; Western blotting
  phosphorylation level of CREB proteins in visceral adipose tissue: increased
